Where two headings read alike, the source gives them in different places.
How the values were obtained:
[1] = Water, Rohrer et al., cited from earlier work
[2] = Liver tissue, 0.47 T; Schuhmann-Giampieri et al.; cited from earlier work
[3] = molar relaxivity of Gd-EOB-DTPA in plasma; assay type: physicochemical; conditions: plasma vs bile
[4] = molar relaxivity of Gd-EOB-DTPA in liver tissue; assay type: physicochemical; conditions: for molar relaxivity: Liver tissue
[5] = molar relaxivity of Gd-EOB-DTPA in blood; assay type: physicochemical
[6] = Blood, cited from earlier work
[7] = Plasma, Rohrer et al., cited from earlier work
[8] = molar relaxivity of Gd-EOB-DTPA in bile; assay type: physicochemical
[9] = molar relaxivity of Gd-EOB-DTPA in urine; assay type: physicochemical

In the case of CCOc1ccc(CC(CN(CCN(CC(=O)[O-])CC(=O)[O-])CC(=O)[O-])N(CC(=O)[O-])CC(=O)[O-])cc1.[Gd+3].[Na+].[Na+] (centres unmarked) [Gd-EOB-DTPA, gadolinium ethoxybenzyl diethylenetriaminepentaacetic acid], the molar relaxivity ([1]; 0.47 T) is given as 5.3^(1) (s·mmol/L)^−1, the molar relaxivity ([1]; 1.5 T) is given as 4.7^(1) (s·mmol/L)^−1 and the molar relaxivity ([1]; 3 T) is given as 4.3^(1) (s·mmol/L)^−1. For the same compound, the molar relaxivity [2] was 16.6^(2) (s·mmol/L)^−1, the “molar relaxivity in plasma compared with bile” value [3] was “significantly higher” and the molar relaxivity ([4]; 1.41 T) was 14.0 ± 2.8 (s·mmol/L)^−1. For the same compound, the molar relaxivity ([4]; 1.5 T) was 16.4 ± 3.1 (s·mmol/L)^−1, the molar relaxivity ([4]; 3 T) was 13.4 ± 4.0 (s·mmol/L)^−1 and the “molar relaxivity in liver cells (hepatocytes) compared with plasma” value ([4]; liver cells (hepatocytes) vs plasma) was “significantly higher”. For the same compound, the molar relaxivity ([5]; 1.41 T) was 8.1 ± 0.2 (s·mmol/L)^−1, the molar relaxivity ([5]; 1.5 T) was 8.3 ± 0.3 (s·mmol/L)^−1 and the molar relaxivity ([5]; 3 T) was 7.2 ± 0.1 (s·mmol/L)^−1. For the same compound, the molar relaxivity ([6]; 0.47 T, Schuhmann-Giampieri et al.) was 11.0^(2) (s·mmol/L)^−1, the molar relaxivity ([6]; 1.5 T, Rohrer et al.) was 7.3 (s·mmol/L)^−1 and the molar relaxivity ([7]; 0.47 T) was 8.7^(1) (s·mmol/L)^−1. The molar relaxivity ([7]; 1.5 T) was 6.9^(1) (s·mmol/L)^−1, the molar relaxivity ([7]; 3 T) was 6.2^(1) (s·mmol/L)^−1 and the molar relaxivity ([8]; 1.41 T) was 5.6 ± 0.3 (s·mmol/L)^−1. The molar relaxivity ([8]; 1.5 T) was 5.6 ± 0.4 (s·mmol/L)^−1, the molar relaxivity ([8]; 3 T) was 5.6 ± 0.3 (s·mmol/L)^−1 and the molar relaxivity ([9]; 1.41 T) was 5.5 ± 0.1 (s·mmol/L)^−1. For the same compound, the molar relaxivity ([9]; 1.5 T) was 5.5 ± 0.2 (s·mmol/L)^−1 and the molar relaxivity ([9]; 3 T) was 5.6 ± 0.1 (s·mmol/L)^−1.
